# Source: ChEMBL document CHEMBL2150904, “A new class of pyrimidine nucleosides: inhibitors of hepatitis B and C viruses” (Bioorg Med Chem Lett, 2012)
# Calls of active or inactive are those of the source. No cut-off for these calls is given here.
# What was measured:
# Hepatitis B virus [1] = assay: Antiviral activity against Hepatitis B virus infected in human HepG2(2.2.15) cells assessed as inhibition of viral replication at 10 ug/mL; format: functional
# Duck hepatitis B virus [2] = assay: Antiviral activity against Duck hepatitis B virus infected in pekin duck primary hepatocytes assessed as inhibition of viral replication at 10 ug/mL; format: functional; conditions: Hepatocyte, in Anas platyrhynchos
# [3] = Cytotoxicity against human HuH7 cells after 2 days by XTT assay; format: cell-based, Huh-7
# Hepatitis C virus [4] = assay: Antiviral activity against Hepatitis C virus subtype 1a infected in human HuH7 cells at 20 ug/mL after 2 days by q-PCR analysis; format: functional, Hepacivirus hominis; conditions: Huh-7, 48 h
# Hepatitis C virus [5] = assay: Antiviral activity against Hepatitis C virus subtype 1a infected in human HuH7 cells at 20 to 50 ug/mL after 2 days by q-PCR analysis; format: functional, Hepacivirus hominis, Huh-7
# Hepatitis C virus [6] = assay: Antiviral activity against Hepatitis C virus subtype 1a infected in human HuH7 cells at 10 ug/mL after 2 days by q-PCR analysis; format: functional, Hepacivirus hominis; conditions: Huh-7, 48 h
# Hepatitis C virus [7] = assay: Antiviral activity against Hepatitis C virus subtype 1a infected in human HuH7 cells after 2 days by q-PCR analysis; format: functional, organism-based, Hepacivirus hominis; conditions: Huh-7, 48 h
# Hepatitis B virus [8] = assay: Antiviral activity against Hepatitis B virus infected in human HepG2(2.2.15) cells assessed as inhibition of viral replication; format: functional, organism-based
# Duck hepatitis B virus [9] = assay: Antiviral activity against Duck hepatitis B virus infected in pekin duck primary hepatocytes assessed as inhibition of viral replication; format: functional, organism-based; conditions: Hepatocyte
# Hepatitis C virus [10] = assay: Potentiation of ribavirin antiviral activity against Hepatitis C virus subtype 1a infected in human HuH7 cells at 5 ug/mL after 2 days by q-PCR analysis; format: functional, organism-based; conditions: Hepacivirus hominis, Huh-7
# Hepatitis C virus [11] = assay: Ratio of ribavirin EC50 to compound EC50 for Hepatitis C virus subtype 1a; format: functional, Hepacivirus hominis
# Hepatitis C virus [12] = assay: Antiviral activity against Hepatitis C virus subtype 1a infected in human HuH7 cells at 5 ug/mL after 2 days by q-PCR analysis; format: functional, Hepacivirus hominis; conditions: Huh-7, 48 h
# Hepatitis B virus [13] = assay: Antiviral activity against Hepatitis B virus infected in human HepG2(2.2.15) cells assessed as inhibition of viral replication at 0.5 to 1 ug/mL; format: functional
# Duck hepatitis B virus [14] = assay: Antiviral activity against Duck hepatitis B virus infected in pekin duck primary hepatocytes assessed as inhibition of viral replication at 0.5 to 1 ug/mL; format: functional, Hepatocyte
SMILES,inhibition at 10 µg/mL (Hepatitis B virus [1]) [%],inhibition at 10 µg/mL (Duck hepatitis B virus [2]) [%],CC50 at 48 h [3] [µg/mL],inhibition at 20 µg/mL (Hepatitis C virus [4]) [%],inhibition (INH) (Hepatitis C virus [5]) [%],inhibition at 10 µg/mL (Hepatitis C virus [6]) [%],EC50 (Hepatitis C virus [7]) [µg/mL],EC50 (Hepatitis B virus [8]) [µg/mL],EC50 (Duck hepatitis B virus [9]) [µg/mL],Activity (Hepatitis C virus [10]),Ratio EC50 (Hepatitis C virus [11]),inhibition at 5 µg/mL (Hepatitis C virus [12]) [%],inhibition (INH) (Hepatitis B virus [13]) [%],inhibition (INH) (Duck hepatitis B virus [14]) [%]
O=C(O)[C@@H]1CC[C@H](n2ccc(=O)[nH]c2=O)O1,0,0,> 250,0,,,,,,,,,,
NC(=O)c1ncn([C@@H]2O[C@H](CO)[C@@H](O)[C@H]2O)n1 [RIBAVIRIN],,,,,50,35,20,,,,,,,
Cc1cn([C@H]2CC=C(C(=O)O)O2)c(=O)[nH]c1=O,61,65,> 250,50,,,20,5,2.5,,,,,
N=c1ccn([C@H]2CC[C@@H](C(=O)O)O2)c(=O)[nH]1,60,80,> 250,0,,,,5,0.5,,,,,
Cc1cn([C@H]2C=C[C@@H](C(=O)O)O2)c(=O)[nH]c1=O,58,63,> 250,0,,,,5,2.5,,,,,
COC(=O)[C@@H]1CC[C@H](n2ccc(N)nc2=O)O1,63,90,> 250,,,50,10,5,0.5,Active,>2,38,,
Nc1ccn([C@@H]2CS[C@H](CO)O2)c(=O)n1 [LAMIVUDINE],,,,,,,,,,,,,88,96
[N-]=[N+]=N[C@H]1C[C@H](n2ccc(=O)[nH]c2=O)O[C@@H]1C(=O)O,50,62,> 250,40,,,> 20,10,5,,,,,
CC(=O)O[C@H]1C[C@H](n2cc(F)c(=O)[nH]c2=O)O[C@@H]1C(=O)O,0,0,> 250,0,,,,,,,,,,
Cc1cn([C@H]2C[C@H](N=[N+]=[N-])[C@@H](C(=O)O)O2)c(=O)[nH]c1=O,50,55,> 250,30,,,,10,5,,,,,
